In publication PMC6792352, “Limited Chemical Structural Diversity Found to Modulate Thyroid Hormone Receptor in the Tox21 Chemical Library” (Environmental Health Perspectives, 2019):
Counter-ions that a name gives are not always drawn.

Assay: in vitro
Conditions: rat, gh3-tre-luc cells

SMILES | CC50 at 24 h (AC50 (uM) modified / 1000) | also measured
CCOC(=O)c1ccc(C2CCC(NC[C@H](O)COc3ccc(O)c(NS(C)(=O)=O)c3)CC2)cc1 (stereo partly shown) [SAR 150640] | 34.8 µM | 
NC(=O)N(O)[C@@H]1COc2cc(OCc3ccccc3)ccc21 [SB202235] | > 90 µM | 
CCN1CCC2(CC1)COc1cc3c(cc12)N(C(=O)c1ccc(-c2ccc(-c4nnc(C)o4)cc2C)cc1)CC3 [SB236057A] | 3 µM | 
Cc1cc2c(cc1C(F)(F)F)N(C(=O)Nc1ccc(Oc3cccnc3C)nc1)CC2 [SB243213A] | 69.4 µM | 
OCC(CO)n1cnc(-c2ccc(F)cc2)c1-c1ccnc(Oc2ccccc2)n1 [SB281832] | > 90 µM | 
Cc1nc(-c2ccc3c(c2)CCN(CCC2CCC(NC(=O)/C=C/c4ccc(F)cc4)CC2)CC3)no1 (stereo not shown) [SB413217A] | 8.41 µM | 
Cn1ccc2cc3c(cc21)CCN3C(=O)Nc1cccnc1 [SB 206553 hydrochloride] | > 50 µM | 
CC1(C)CO[C@@H](CC(=O)O)CN1 [SCH 50911] | > 50 µM | 
CC(C)OC(=O)c1cc2c(OCC(O)CNC(C)(C)C)cccc2[nH]1 (stereo not shown) [SDZ 21009] | 36.9 µM | 
C=CCN1C[C@H](C)N([C@H](c2ccc(C(=O)N(CC)CC)cc2)c2cccc(OC)c2)C[C@H]1C [SNC 80] | 28.8 µM | 
O=C1c2ccccc2-c2n[nH]c3cccc1c23 [SP600125] | > 50 µM | 
CCOC(=O)COc1ccc2c(c1)C[C@@H](NC[C@H](O)c1cccc(Cl)c1)CC2 [SR58611] | 24.3 µM | 
COc1cccc(-c2ccc(/C=C\CN3CCCCCC3)cc2Cl)c1 [SR125047] | 17.7 µM | 
CN(C)C(=O)NC1(c2ccccc2)CCN(CC[C@@]2(c3ccc(F)c(F)c3)CN(C(=O)c3ccccc3)CCO2)CC1 [SR144190] | 55.6 µM | 
COc1cc(-c2nc(NC(=O)c3cc4cc(C)cc(C)c4n3CC(=O)O)sc2CCC2CCCCC2)c(OC)cc1Cl [SR146131 trifluoroacetate (1:1)] | 12.1 µM | 
CCN(CC)CCNc1ccc(CNC=O)c2sc3ccc(OC)cc3c(=O)c12 [SR271425] | 11.7 µM | 
NC1CCN(c2cccc(Cl)n2)CC1 [SR 57227A hydrochloride] | 24.7 µM | 
COc1cc(C(C)C)c2c(c1)S(=O)(=O)N(COc1cc(=O)n3cccc(OCCN4CCCCC4)c3n1)C2=O [SSR69071] | 11.9 µM | 
CCN(Cc1cccnc1)C(=O)c1cccc(Cl)c1[C@]1(C)C(=O)N(Cc2ccc(OC)cc2OC)c2ccc(Cl)cc21 [SSR126768] | 9.39 µM | 
CN(C)C(=O)NC1(c2ccccc2)CCN(CCC[C@]2(c3ccc(Cl)c(Cl)c3)CCCN(C(=O)c3ccccc3)C2)CC1 [SSR146977] | 8.07 µM | 
FC(F)(F)c1cccc(C2=CCN(CCc3ccc4ccncc4c3)CC2)c1 [SSR150106] | 76.9 µM | 
COc1ccc(C(=O)/N=c2\[nH]c3ccccc3c(NCc3ccccc3)c2C#N)cc1 [SSR161421] | > 90 µM | 
N#C[C@@H]1CC(F)(F)CN1C(=O)CNC1CC2CCC(C1)N2c1ncccn1 (stereo partly shown) [SSR162369] | > 90 µM | 
O=C(Oc1ccc(Br)cc1)N1CCN2CCC1CC2 [SSR180711] | 44 µM | 
O=C(N[C@@H](c1ccccc1)[C@@H]1CCCCN1)c1cccc(C(F)(F)F)c1Cl [SSR504734] | 19.9 µM | 
O=C(N[C@H](c1ccccc1)[C@@H]1CN2CCC1CC2)c1c(Cl)ccc(C(F)(F)F)c1Cl [SSR 103800] | 9.74 µM | 

SMILES | CC50 at 24 h (AC50 (uM) modified / 1000) | also measured
COc1ccc2cc(S(=O)(=O)N[C@H](CC(=O)N[C@H](Cc3ccc(CN4[C@H](C)CCC[C@@H]4C)cc3)C(=O)N(C)C(C)C)c3ccc4c(c3)OCO4)ccc2c1 [SSR 240612] | 4.04 µM | 
CN(C)C(=O)C1(N2CCCCC2)CCN(CC[C@@]2(c3ccc(Cl)c(Cl)c3)CN(C(=O)c3ccccc3)CCO2)CC1 [SSR 241586 HCl] | 4.07 µM | 
Cc1cc(C)c(/C=C2\C(=O)Nc3ccccc32)[nH]1 [SU-5416] | > 50 µM | 
CCCCCCCCCCCCCCC[C@H](O)[C@@H](N)CO [Safingol] | > 50 µM | 
CC1=C(C=O)C(C)(C)CC=C1 [Safranal] | > 100 µM | 
CC(CCc1ccc2c(c1)OCO2)NN (stereo not shown) [Safrazine hydrochloride] | > 50 µM | 
C=CCc1ccc2c(c1)OCO2 [Safrole] |  | CC50 at 24 h (AC50 (uM) modified / 1000, Tox21_110001=Tox21_202439, viability, 1 nM T3 present, 24 h): > 90 µM
OCc1ccccc1O [Salicyl alcohol] | > 50 µM | 
O=Cc1ccccc1O [Salicylaldehyde] | > 90 µM | 
NC(=O)c1ccccc1O [Salicylamide] | > 90 µM | 
O=C(Nc1ccccc1)c1ccccc1O [Salicylanilide] | > 90 µM | 
Cc1ccc(OC(=O)c2ccccc2O)cc1 [Salicylic acid p-tolyl ester] | > 90 µM | 
OC[C@H]1O[C@@H](OCCc2ccc(O)cc2)[C@H](O)[C@@H](O)[C@@H]1O [Salidroside] | > 50 µM | 
O=C(N/N=C/c1ccccc1O)c1ccncc1 [Salinazid] | > 50 µM | 
CC[C@@H](C(=O)[C@@H](C)[C@@H](O)[C@H](C)[C@@H]1O[C@@H]([C@@H](CC)C(=O)O)CC[C@@H]1C)[C@H]1O[C@]2(C=C[C@@H](O)[C@]3(CC[C@@](C)([C@H]4CC[C@](O)(CC)[C@H](C)O4)O3)O2)[C@H](C)C[C@@H]1C [Salinomycin sodium] | 0.823 µM | 
OCc1cc(C(O)CNCCCCCCOCCCCc2ccccc2)ccc1O (stereo not shown) [Salmeterol] | 10.6 µM | 
O=C(Oc1ccccc1C(=O)O)c1ccccc1O [Salsalate] | > 50 µM | 
C[n+]1cc2c3c(ccc2c2ccc4cc5c(cc4c21)OCO5)OCO3 [Sanguinarine] | 2.9 µM | 
C[C@@H]1C(=O)C[C@H]2[C@]3(C)CC[C@@]2([C@H](C)C(=O)O)C(=O)[C@H]13 [Santonic acid] | > 50 µM | 
O=C(O)c1cn(-c2ccc(F)cc2)c2cc(N3CCNCC3)c(F)cc2c1=O [Sarafloxacin hydrochloride] | > 50 µM | 
CNCC(=O)N[C@@H](CCCN=C(N)N)C(=O)N[C@H](C(=O)N[C@@H](Cc1ccc(O)cc1)C(=O)N[C@H](C(=O)N[C@@H](Cc1cnc[nH]1)C(=O)N1CCC[C@H]1C(=O)N[C@@H](C)C(=O)O)C(C)C)C(C)C [Saralasin] | > 50 µM | 
COc1cccc(CCc2ccccc2OCC(CN(C)C)OC(=O)CCC(=O)O)c1 (stereo not shown) [Sarpogrelate hydrochloride] | 17.2 µM | 
N#C[C@@H]1C[C@@H]2C[C@@H]2N1C(=O)[C@@H](N)C12CC3CC(CC(O)(C3)C1)C2 [Saxagliptin] | > 50 µM | 
C=C[C@](C)(O)CC[C@@H]1[C@@]2(C)CCCC(C)(C)[C@@H]2CC[C@@]1(C)O [Sclareol] | 29.3 µM | 
C[N+]1(C)[C@@H]2CC(OC(=O)[C@H](CO)c3ccccc3)C[C@H]1[C@@H]1O[C@@H]12 (stereo partly shown) [Scopolamine methylbromide] | > 50 µM | 
CCNc1nc(NC(C)CC)nc(OC)n1 (stereo not shown) [Secbumeton] | > 90 µM | 

SMILES | CC50 at 24 h (AC50 (uM) modified / 1000) | also measured
Cc1ncc([N+](=O)[O-])n1CC(C)O (stereo not shown) [Secnidazole] | > 50 µM | 
O=C1C=C2C=C[C@@H]3C[C@@]2(O1)[C@H]1CCCCN31 [Securinine] | 15.3 µM | 
CO[C@H]1C[C@H](O[C@@H]2/C(C)=C/C[C@@H]3C[C@@H](C[C@]4(CC[C@H](C)[C@@H](C5CCCCC5)O4)O3)OC(=O)[C@@H]3C=C(C)/C(=N/O)[C@H]4OC/C(=C\C=C\[C@@H]2C)[C@]43O)O[C@@H](C)[C@@H]1O [Selamectin] | 33.2 µM | 
C#CCN(C)[C@H](C)Cc1ccccc1 [Selegiline hydrochloride] | > 50 µM | 
C[Se]CC[C@H](N)C(=O)O [Selenomethionine] | > 50 µM | 
NC(N)=[Se] [Selenourea] |  | CC50 at 24 h (AC50 (uM) modified / 1000, Tox21_110001=Tox21_200857, viability, 1 nM T3 present, 24 h): > 90 µM
Cn1cnc2c(F)c(Nc3ccc(Br)cc3Cl)c(C(=O)NOCCO)cc21 [Selumetinib] | > 50 µM | 
CCN(CC)CCNC(=O)c1ccc(NS(C)(=O)=O)cc1 [Sematilide monohydrochloride] | > 50 µM | 
NNC(N)=O [Semicarbazide hydrochloride] | > 90 µM | 
O=C(O)c1cc(O)c2c(c1)[C@H]([C@H]1c3cc(C(=O)O)cc(O)c3C(=O)c3c(O[C@@H]4O[C@H](CO)[C@@H](O)[C@H](O)[C@H]4O)cccc31)c1cccc(O[C@@H]3O[C@H](CO)[C@@H](O)[C@H](O)[C@H]3O)c1C2=O [Sennoside A] | > 50 µM | 
Clc1ccc(C(Cn2ccnc2)OCc2csc3c(Cl)cccc23)c(Cl)c1 (stereo not shown) [Sertaconazole nitrate] | 18.4 µM | 
CN[C@H]1CC[C@@H](c2ccc(Cl)c(Cl)c2)c2ccccc21 [Sertraline hydrochloride] | 7.85 µM | 
Oc1ccc2c(c1)OCO2 [Sesamol] | > 90 µM | 
CCC/C(=N\OCC)C1=C(O)CC(CC(C)SCC)CC1=O (stereo not shown) [Sethoxydim] | > 90 µM | 
FCOC(C(F)(F)F)C(F)(F)F [Sevoflurane] | > 50 µM | 
CC(C)CC(N(C)C)C1(c2ccc(Cl)cc2)CCC1 (stereo not shown) [Sibutramine hydrochloride] |  | CC50 at 24 h (AC50 (uM) modified / 1000, Tox21_110001=Tox21_111448, viability, 1 nM T3 present, 24 h): > 50 µM
Cc1cc(O)c2c(c1)O[C@@]1(C)CC[C@H]3C(C)(C)CCC[C@]34CO[C@@H]2[C@H]41 [Siccanin] | 15.9 µM | 
CC1CCCCC1NC(=O)Nc1ccccc1 (stereo not shown) [Siduron] | > 90 µM | 
CN/C(=N\c1ccc(C2=NNC(=O)CC2C)cc1)NC#N (stereo not shown) [Siguazodan] | > 50 µM | 
CCCc1nn(C)c2c(=O)[nH]c(-c3cc(S(=O)(=O)N4CCN(C)CC4)ccc3OCC)nc12 [Sildenafil citrate] | > 50 µM | 
COc1cc([C@H]2Oc3cc([C@H]4Oc5cc(O)cc(O)c5C(=O)[C@@H]4O)ccc3O[C@@H]2CO)ccc1O [Silybin] | > 90 µM | 
CCNc1nc(Cl)nc(NCC)n1 [Simazine] | > 90 µM | 
CCNc1nc(NCC)nc(SC)n1 [Simetryn] |  | CC50 at 24 h (AC50 (uM) modified / 1000, Tox21_110001=Tox21_300702, viability, 1 nM T3 present, 24 h): > 90 µM
CSCC[C@H](NC(=O)[C@H](Cc1ccc(OS(=O)(=O)O)cc1)NC(=O)[C@@H](N)CC(=O)O)C(=O)NCC(=O)N[C@@H](Cc1c[nH]c2ccccc12)C(=O)N[C@@H](CCSC)C(=O)N[C@@H](CC(=O)O)C(=O)N[C@@H](Cc1ccccc1)C(N)=O [Sincalide] | > 50 µM | 
